Like-named read-outs stand apart in the source and are kept apart here.
Experiments:
[1] = system: AGS; test: alamarBlue cell viability (survival rate, IC50), AGS; type: cell-based; settings: AGS (gastric cancer)
Source text: (§1) A p-value < 0.05 was considered statistically significant.

[2] = system: 23132/87; test: alamarBlue cell viability (survival rate, IC50), 23132/87; type: cell-based; settings: 23132/87 (gastric cancer)
Source text: as §1

[3] = system: SNU-81; test: alamarBlue cell viability (survival rate, IC50), SNU-81; type: cell-based
Source text: as §1

[4] = system: SNU-C5; test: alamarBlue cell viability (survival rate, IC50), SNU-C5; type: cell-based
Source text: as §1

[5] = system: SW48; test: alamarBlue cell viability (survival rate, IC50), SW48; type: cell-based; settings: SW48 (colorectal cancer)
Source text: as §1

[6] = system: SNU201; test: alamarBlue cell viability (survival rate), SNU201; type: cell-based; settings: SNU201 (glioblastoma), compound 10 µM, 48 hours
Source text: as §1

[7] = system: SNU466; test: alamarBlue cell viability (survival rate), SNU466; type: cell-based; settings: SNU466 (glioblastoma), compound 10 µM, 48 hours
Source text: as §1

[8] = system: HepG2; test: alamarBlue cell viability (survival rate), HepG2; type: cell-based; settings: HepG2 (liver cancer), compound 10 µM, 48 hours
Source text: as §1

[9] = system: MiaPaCa-2; test: alamarBlue cell viability (survival rate), MiaPaCa-2; type: cell-based; settings: MiaPaCa-2 (pancreatic cancer), compound 10 µM, 48 hours
Source text: as §1

[10] = system: 23132/87 cell line; test: Cell cycle distribution (PI/RNase staining, flow cytometry), 23132/87; type: cell-based; settings: 48 hours
Method: (§2) Cell cycle distribution was analyzed by DNA staining using FxCycle PI/RNase Staining Solution (Invitrogen, USA). The 23132/87 and SW48 cell lines was seeded at densities of 5 × 10^5 and 7 × 10^5cells/well, respectively, in 6-well plates. After 24 hours of culture, cells were starved overnight in serum-free medium. […] Cells were then harvested, fixed with 70% ethanol, and stained with PI/RNase solution. Samples were analyzed by flow cytometry (BD FACSVerse Cell Analyzer and FlowJo software, BD Biosciences, Franklin Lakes, NJ, USA) based on 10,000 events.
(§3) Student's t-test was performed for statistical analysis between the 2 concentrations of the same compound.

[11] = system: SW48 cell line; test: Cell cycle distribution (PI/RNase staining, flow cytometry), SW48; type: cell-based
Method: as §2, §3

[12] = system: SW48 cells; test: Apoptosis, Annexin V-FITC/PI staining, flow cytometry, SW48; type: cell-based; settings: for Apoptosis distribution (%), Q1 / Apoptosis distribution (%), Q2 / Apoptosis distribution (%), Q3 / Apoptosis distribution (%), Q4: 20 hours; for Apoptosis distribution (%), Q2: Annexin V-FITC+/PI+ (late apoptosis and cell death); for Apoptosis distribution (%), Q3: Annexin V-FITC+/PI- (early apoptosis); for Apoptosis distribution (%), Q4: Annexin V-FITC-/PI- (healthy population)
Method: 23132/87 and SW48 cells were seeded at densities of 5 × 10^5 and 7 × 10^5 cells/well in a 6-well plate and cultured for 24 hours. […] After treatment, cells were harvested and stained using the Annexin V-FITC Early Apoptosis Detection Kit (6592, Cell Signaling Technology, USA). Flow cytometry (BD FACSVerse Cell Analyzer and FlowJo software, BD Biosciences, USA) was applied to analyze the samples based on 10,000 events.
as §3

[13] = system: caspase-3 and -7; test: Caspase-3/7 activity assay (Caspase-Glo 3/7), 23132/87 cells; type: cell-based; settings: for Caspase-3/7 activity: RLU relative to DMSO; for caspase-3/7 RLU increase over DMSO: 23132/87
Method: (§4) Apoptosis can be activated and progress through either the intrinsic or extrinsic pathway, but caspase-3, the executioner caspase, is involved in most cases. […] Since this enzyme activity is transient, analysis was performed at two time points: 6 hours and 12 hours post-treatment.
(§5) Specifically, the Caspase-3/7 activity assay was performed with slight modifications to the manufacturer's protocol (Promega, USA). Briefly, cells were seeded at a density of 5 × 10^3 cells/well in a 96-well plate, cultured for 24 hours, and then treated with the compound at an appropriate concentration for 6 or 12 hours. After treatment, Caspase-Glo 3/7 reagent was added in equal volumes to the treated samples. The plate was then shaken and incubated at room temperature for 2 hours. Enzyme activity was determined by measuring relative light units (RLU) using a Varioskan LUX Multimode Microplate Reader (Thermo Fisher Scientific, USA).

[14] = system: caspase-3 and -7; test: Caspase-3/7 activity assay (Caspase-Glo 3/7), SW48 cells; type: cell-based; settings: for Caspase-3/7 activity: RLU relative to DMSO; for caspase-3/7 signal higher than DMSO: SW48
Method: as §4, §5

[15] = system: 23132/87 cells; test: Xenograft mouse model, tumor volume, 23132/87 (gastric cancer); type: in vivo, BALB/c/nu/nu mice; settings: 10 mg/kg intraperitoneal on alternate days, to day 27
Method: (§6) Tumor volume and body weight were measured twice weekly.

[16] = system: SW48 cells; test: Xenograft mouse model, tumor volume, SW48 (colorectal cancer); type: in vivo, BALB/c/nu/nu mice; settings: 10 mg/kg intraperitoneal on alternate days, to day 27
Method: as §6

[17] = system: various cancer cell lines; test: alamarBlue cell viability, statements across the cell line panel
Method: AGS, SW48, HepG2, and MiaPaCa-2 was purchased from ATCC (American Type Culture Collection, USA), SNU cell lines from the Korean Cell Line Bank (KCLB, Korea), and 23132/87 from the Leibniz Institute DSMZ - German Collection of Microorganisms and Cell Cultures GmbH (DSMZ, Germany). All cell lines were cultured in RPMI-1640 medium (HyClone, USA) supplemented with 10% FBS (Gibco, USA) and 1% penicillin-streptomycin (HyClone, USA) under conditions of 5% CO2, 37°C.
Cells were seeded at a density of 5 × 10^3cells/well in a 96-well plate for 24 hours, then treated with the compound at an appropriate concentration (10 µM) for 48 hours. After treatment, alamarBlue reagent was added at a volume ratio of 1/10 of the treatment volume and incubated for 4 hours in a 37°C cell incubator (protected from direct light). Cell viability was then determined by measuring absorbance values at 570 nm and 600 nm using a microplate reader. The anticancer effects of candidate compounds were evaluated by assessing the cell viability (%) of cells treated at specific concentrations and the half-maximal inhibitory concentration (IC50) of each natural product. Doxorubicin and oxaliplatin were used as positive controls for gastric and colorectal cancer, respectively.
Statistical analysis was performed using R software (version 4.2.2) (R Core Team). Differences between groups were assessed using student's t-test or 1-way ANOVA followed by post-hoc Tukey HSD test. A p-value < 0.05 was considered statistically significant.
Further, to measure the IC50 values against six cancer cell lines.

## C=CCc1cc(OC)c(O[C@H](C)[C@H](c2ccc(O)c(OC)c2)c2ccc(O)c(C(=O)CCCCCCCCc3ccc(O)cc3)c2O)c(OC)c1 [Compound 3, Myricone C]
[1]; compound 10 µM, 48 hours
  Cancer cell line survival rate (%): 0.16%
[1]; Homo sapiens, 2.5-40 µM, positive control = doxorubicin
  IC50: 3620 nM
[2]; 2.5-40 µM, positive control = doxorubicin
  IC50: 2070 nM
[2]; compound 10 µM, 48 hours
  Cancer cell line survival rate (%): 1.77%
[3]; SNU81 (colorectal cancer), 2.5-40 µM, positive control = oxaliplatin, read-out: IC50
  IC50: 9840 nM
[3]; SNU81 cells, compound 2.5-40 µM, read-out: IC50 values
  IC50: 9840 nM
[3]; SNU-81 (colorectal cancer), compound 10 µM, 48 hours
  Cancer cell line survival rate (%): 47.08%
[4]; SNU-C5 (colorectal cancer), compound 10 µM, 48 hours
  Cancer cell line survival rate (%): 2.11%
[4]; SNUC5 (colorectal cancer), 2.5-40 µM, positive control = oxaliplatin, read-out: IC50
  IC50: 2540 nM
[4]; SNUC5 cells, compound 2.5-40 µM, read-out: IC50 values
  IC50: 2540 nM
[5]; Homo sapiens, 2.5-40 µM, positive control = oxaliplatin
  IC50: 2550 nM
[5]; compound 10 µM, 48 hours
  Cancer cell line survival rate (%): 0.01%
[6]
  Cancer cell line survival rate (%): 1.17%
[7]
  Cancer cell line survival rate (%): 1.91%
[8]
  Cancer cell line survival rate (%): 1.60%
[9]
  Cancer cell line survival rate (%): 2.53%
[10]; 23132/87, 5 µM
  Cell cycle distribution, G1: 63.00%
  Cell cycle distribution, G2/M: 6.79%
  Cell cycle distribution, S: 21.23%
  Cell cycle distribution, Sub G1: 9.15%
[10]; 23132/87, 10 µM
  Cell cycle distribution, G1: 68.93%
  Cell cycle distribution, G2/M: 6.19%
  Cell cycle distribution, S: 14.40%
  Cell cycle distribution, Sub G1: 10.45%
  G1 phase increase compared to DMSO: about 10%
  G2/M phase decrease compared to DMSO: about 4%
[11]; SW48, 5 µM, 48 hours
  Cell cycle distribution, G1: 56.63%
  Cell cycle distribution, G2/M: 8.91%
  Cell cycle distribution, S: 23.00%
  Cell cycle distribution, Sub G1: 9.65%
[11]; SW48, 10 µM, 48 hours
  Cell cycle distribution, G1: 50.93%
  Cell cycle distribution, G2/M: 6.13%
  Cell cycle distribution, S: 19.30%
  Cell cycle distribution, Sub G1: 24.17%
  sub-G1 proportion increase compared to the DMSO control: 7%
[11]; SW48, 5 µM
  G2 phase: 8.91% ± 0.24%
  sub-G1 phase ratio: 9.65% ± 1.02%
[11]; SW48, 10 µM
  G2 phase: 6.13% ± 0.47%
  sub-G1 phase ratio: 24.17% ± 0.98%
[11]; SW48, 10 µM, 48 hours, only G2/M decrease statistically significant
  proportions of the G1, S, and G2/M phases: slightly reduced
[12]; SW48, 5 µM
  Apoptosis distribution (%), Q1: 7.41%
  Apoptosis distribution (%), Q2: 13.80%
  Apoptosis distribution (%), Q3: 13.73%
  Apoptosis distribution (%), Q4: 65.10%
  Q2 ratio: 13.80% ± 0.65%
  Q3 ratio: 13.73% ± 0.92%
[12]; SW48, 10 µM
  Apoptosis distribution (%), Q1: 4.97%
  Apoptosis distribution (%), Q2: 22.43%
  Apoptosis distribution (%), Q3: 18.77%
  Apoptosis distribution (%), Q4: 53.87%
  Q2 (Annexin V-FITC+/PI+): 22.43% ± 0.30%
  Q2 increase compared to the control: over 8%
  Q3 ratio: 18.77% ± 1.07%
  Q4 distribution reduction compared to the control group: 9.43%
  apoptotic and dead cell population (Q2 and Q3) increase over DMSO: ~10%
[12]; SW48, 5 µM to 10 µM
  increase in the Q2 population, dose-based comparison: over 8%
[12]; SW48, from 5 µM to 10 µM
  Q4 ratio reduction on changing the concentration: approximately 11.23%
[13]; 23132/87, 5 µM, 6 h
  Caspase-3/7 activity: 0.58 fold
[13]; 23132/87, 5 µM, 12 h
  Caspase-3/7 activity: 1.74 fold
[13]; 23132/87, 10 µM, 6 h
  Caspase-3/7 activity: 1.81 fold
[13]; 23132/87, 10 µM, 12 h
  Caspase-3/7 activity: 1.20 fold
[13]; 5 µM, 12 hours
  caspase-3/7 RLU increase over DMSO: 1.74 fold
[13]; 10 µM, 6 hours
  caspase-3/7 RLU increase over DMSO: 1.81 fold
[14]; SW48, 5 µM, 6 h
  Caspase-3/7 activity: 1.10 fold
[14]; SW48, 5 µM, 12 h
  Caspase-3/7 activity: 2.37 fold
[14]; SW48, 10 µM, 6 h
  Caspase-3/7 activity: 1.89 fold
[14]; SW48, 10 µM, 12 h
  Caspase-3/7 activity: 2.02 fold
[14]; high concentration (10 µM), 6 hours
  caspase-3/7 signal higher than DMSO: 2.37 fold
[14]; low concentration (5 µM), 12 hours
  caspase-3/7 signal higher than DMSO: 1.89 fold
[15]
  tumor volume: smallest tumor volume was observed starting on day 13
[16]
  tumor growth: suppressed compared to the control group
[17]; six cancer cell lines, 2.5-40 µM
  anticancer activity (comparison of IC50 values among compounds): strongest anticancer activity
[17]; various cancer cell lines
  anticancer activity: high anticancer activity

Reference: EP4790046A1, “NOVEL COMPOUND DERIVED FROM MYRISTICA FRAGRANS, AND ANTICANCER COMPOSITION COMPRISING SAME” (Korea Institute of Science and Technology, priority 2023, dated 2025)
